Test system: NOMO1
Assay: cell viability relative to DMSO control; higher = less cytotoxic
Conditions: 48 h
Summary of the method: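 Viability values are per-plate percentages of DMSO wells, with background from cell-free wells. Library compounds in DMSO were pin-dosed, in an 11-point threefold series from 47 μM to 0.79 nM, onto NOMO1 or SEM (500 cells/well) or P12-Ichikawa (1000 cells/well) leukemia cells in 1536-well plates (5 μl). Those cells had been adapted for at least four passages in each medium, and CellTiter-Glo One luminescence was read after 48 h at 37°C.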

[1] = HPLM + 10% dialyzed FBS, 0.000781 µM
[2] = HPLM + 10% dialyzed FBS, 0.00234 µM
[3] = HPLM + 10% dialyzed FBS, 0.00702 µM
[4] = HPLM + 10% dialyzed FBS, 0.0211 µM
[5] = HPLM + 10% dialyzed FBS, 0.0632 µM
[6] = HPLM + 10% dialyzed FBS, 0.19 µM
[7] = HPLM + 10% dialyzed FBS, 0.569 µM
[8] = HPLM + 10% dialyzed FBS, 1.71 µM
[9] = HPLM + 10% dialyzed FBS, 5.12 µM
[10] = HPLM + 10% dialyzed FBS, 15.4 µM
[11] = HPLM + 10% dialyzed FBS, 46.1 µM
[12] = RPMI 5 mM glucose + 10% FBS, 0.000781 µM
[13] = RPMI 5 mM glucose + 10% FBS, 0.00234 µM
[14] = RPMI 5 mM glucose + 10% FBS, 0.00702 µM
[15] = RPMI 5 mM glucose + 10% FBS, 0.0211 µM
[16] = RPMI 5 mM glucose + 10% FBS, 0.0632 µM
[17] = RPMI 5 mM glucose + 10% FBS, 0.19 µM
[18] = RPMI 5 mM glucose + 10% FBS, 0.569 µM
[19] = RPMI 5 mM glucose + 10% FBS, 1.71 µM
[20] = RPMI 5 mM glucose + 10% FBS, 5.12 µM
[21] = RPMI 5 mM glucose + 10% FBS, 15.4 µM
[22] = RPMI 5 mM glucose + 10% FBS, 46.1 µM
[23] = RPMI 5 mM glucose + 10% dialyzed FBS, 0.000781 µM
[24] = RPMI 5 mM glucose + 10% dialyzed FBS, 0.00234 µM
[25] = RPMI 5 mM glucose + 10% dialyzed FBS, 0.00702 µM
[26] = RPMI 5 mM glucose + 10% dialyzed FBS, 0.0211 µM
[27] = RPMI 5 mM glucose + 10% dialyzed FBS, 0.0632 µM
[28] = RPMI 5 mM glucose + 10% dialyzed FBS, 0.19 µM
[29] = RPMI 5 mM glucose + 10% dialyzed FBS, 0.569 µM
[30] = RPMI 5 mM glucose + 10% dialyzed FBS, 1.71 µM
[31] = RPMI 5 mM glucose + 10% dialyzed FBS, 5.12 µM
[32] = RPMI 5 mM glucose + 10% dialyzed FBS, 15.4 µM
[33] = RPMI 5 mM glucose + 10% dialyzed FBS, 46.1 µM

SMILES | cell viability [1] [%] | cell viability [2] [%] | cell viability [3] [%] | cell viability [4] [%] | cell viability [5] [%] | cell viability [6] [%] | cell viability [7] [%] | cell viability [8] [%] | cell viability [9] [%] | cell viability [10] [%] | cell viability [11] [%] | cell viability [12] [%] | cell viability [13] [%] | cell viability [14] [%] | cell viability [15] [%] | cell viability [16] [%] | cell viability [17] [%] | cell viability [18] [%] | cell viability [19] [%] | cell viability [20] [%] | cell viability [21] [%] | cell viability [22] [%] | cell viability [23] [%] | cell viability [24] [%] | cell viability [25] [%] | cell viability [26] [%] | cell viability [27] [%] | cell viability [28] [%] | cell viability [29] [%] | cell viability [30] [%] | cell viability [31] [%] | cell viability [32] [%] | cell viability [33] [%]
OCCCNc1cc(-c2ccnc(Nc3cccc(Cl)c3)n2)ccn1 | 106 | 107 | 119 | 119 | 114 | 80.4 | 14.1 | 7.46 | 8.09 | 6.31 | 4.31 | 92.2 | 98.4 | 117 | 111 | 107 | 54.5 | 18.8 | 9.75 | 8.02 | 7.79 | 4.61 | 97.5 | 95.8 | 100 | 106 | 100 | 63.3 | 15.8 | 7.75 | 7.44 | 7.1 | 5.05
O=C(NNC(=O)c1ccc(CN[S+](=O)([O-])c2ccc(F)c(Cl)c2)cc1)c1ccccc1 | 105 | 105 | 116 | 121 | 112 | 103 | 104 | 117 | 113 | 82.7 | 110 | 84.1 | 85.2 | 85.2 | 89.3 | 92.9 | 99.5 | 93.3 | 91.3 | 96.7 | 94.5 | 92.6 | 92.1 | 98.5 | 107 | 94.2 | 111 | 105 | 103 | 102 | 115 | 112 | 115
Cc1ccc(C(=O)c2cc(O)c(O)c([N+](=O)[O-])c2)cc1 | 91.5 | 104 | 98.2 | 100 | 116 | 101 | 115 | 89.5 | 80.7 | 83.2 | 86.4 | 90.3 | 86.4 | 83.6 | 90.6 | 96 | 83.7 | 90.9 | 81.7 | 94.6 | 87.3 | 92.2 | 100 | 98 | 79.4 | 92.1 | 99.6 | 105 | 108 | 94.3 | 81.8 | 88.4 | 103
CCCCCCCCc1ccc(CCC(N)(CO)CO)cc1 | 124 | 124 | 123 | 122 | 112 | 102 | 79.1 | 91 | 60.6 | 48.9 | 2.93 | 99.2 | 104 | 102 | 100 | 105 | 102 | 104 | 93.4 | 90.3 | 64.2 | 2.61 | 113 | 105 | 103 | 113 | 105 | 95.6 | 98.2 | 81 | 70.5 | 65.2 | 2.38
CN[C@@H]1C[C@H]2O[C@@](C)([C@@H]1OC)n1c3ccccc3c3c4c(c5c6ccccc6n2c5c31)C(=O)N[C@H]4O | 81.2 | 101 | 93.1 | 78.2 | 96.8 | 56.4 | 48.8 | 35.4 | 22.7 | 18 | 3.31 | 76.2 | 87.6 | 81.4 | 82.7 | 84.6 | 69.4 | 64.7 | 19.6 | 14.8 | 12.7 | 3.97 | 79.9 | 84.5 | 85.9 | 90.5 | 95.9 | 85.5 | 65.5 | 31.6 | 16.9 | 14.7 | 3.79
O=C1NC(=O)/C(=C/c2cccc(C(F)(F)F)c2)S1 | 114 | 95.1 | 96.8 | 113 | 102 | 98.4 | 108 | 99.1 | 92.8 | 96.9 | 90 | 90.3 | 90.2 | 94.1 | 101 | 106 | 97.8 | 97.8 | 93.2 | 101 | 96.5 | 80.1 | 95.5 | 99.6 | 99 | 104 | 93.1 | 92.9 | 93.2 | 108 | 103 | 87.9 | 92.2
COc1cc(-c2nn(C3CCC(N4CCN(C(C)=O)CC4)CC3)c3ncnc(N)c23)ccc1NC(=O)c1cc2ccccc2n1C (stereo not drawn) | – | – | – | – | – | – | – | – | – | – | – | 104 | 117 | 101 | 109 | 107 | 111 | 106 | 113 | 112 | 89.2 | 26.8 | 106 | 110 | 120 | 119 | 129 | 115 | 113 | 112 | 106 | 109 | 31.3
CC(C)C[C@H](NC(=O)[C@H](Cc1ccccc1)NC(=O)c1cnccn1)B(O)O | 99.7 | 106 | 108 | 119 | 21.6 | 3.62 | 4.25 | 2.64 | 2.22 | 1.08 | 0.274 | 83.7 | 91.4 | 99 | 96.6 | 21.6 | 6.12 | 2.91 | 1.66 | 1.61 | 1.02 | -0.312 | 94.5 | 101 | 98.4 | 116 | 17 | 5 | 3.79 | 3 | 1.75 | 1.72 | -0.0281
CCNc1cc(NC2CCC(O)CC2)nc(Nc2ccc3c(ccn3Cc3ccccc3)c2)n1 (stereo not drawn) | 113 | 121 | 126 | 124 | 147 | 118 | 127 | 139 | 121 | 116 | 120 | – | – | – | – | – | – | – | – | – | – | – | 115 | 123 | 124 | 142 | 141 | 129 | 148 | 121 | 150 | 145 | 106
COC(=O)[C@@H](N)CCCNC(=N)N[N+](=O)[O-] | 92.9 | 97.2 | 105 | 88 | 103 | 118 | 99.1 | 96.7 | 104 | 93.9 | 103 | 90 | 85.6 | 96.3 | 88.9 | 86.9 | 86.3 | 92.4 | 88.1 | 92.6 | 93.3 | 102 | 76.9 | 96.3 | 93.8 | 95.7 | 97.4 | 103 | 97.9 | 93.4 | 94.2 | 101 | 105
O=C(CCCCCCC(=O)Nc1ccccc1)NO | 92.9 | 102 | 106 | 96.9 | 113 | 104 | 102 | 111 | 67.3 | 38.4 | 5.95 | 81.3 | 94 | 89.2 | 96.4 | 110 | 105 | 109 | 98.9 | 83.3 | 44 | 5 | 74.9 | 90.8 | 102 | 114 | 119 | 105 | 119 | 113 | 88.6 | 57.6 | 6.52
N[C@@H](CC(=O)N1CCn2c(nnc2C(F)(F)F)C1)Cc1cc(F)c(F)cc1F | 119 | 98.7 | 111 | 119 | 100 | 106 | 103 | 102 | 109 | 94.9 | 83.5 | 83.3 | 97.4 | 84.6 | 86.4 | 92.4 | 84.8 | 86 | 83.4 | 96.2 | 85.1 | 82.9 | 103 | 96.3 | 99.5 | 95.2 | 106 | 91.7 | 93.4 | 100 | 96.2 | 94.8 | 79.5
CCN(CC)CCN1C(=O)\C(=N/C2=CC=CC=C12)CC3=CC=C(OC)C=C3 | 111 | 117 | 99.1 | 118 | 119 | 110 | 115 | 115 | 109 | 113 | 116 | 96.1 | 101 | 117 | 109 | 97.4 | 96.6 | 107 | 102 | 111 | 101 | 97.7 | 98.4 | 102 | 113 | 111 | 115 | 119 | 119 | 121 | 111 | 101 | 102
CC[C@@]1(O)C[C@H](O[C@H]2C[C@H](N(C)C)[C@H](O[C@H]3C[C@H](O)[C@H](O[C@H]4CCC(=O)[C@H](C)O4)[C@H](C)O3)[C@H](C)O2)c2c(cc3c(c2O)C(=O)c2c(O)cccc2C3=O)[C@H]1C(=O)OC | 109 | 106 | 106 | 106 | 122 | 101 | 109 | 82 | 67 | 78.5 | 71.9 | 95.7 | 102 | 95.6 | 97.6 | 106 | 93.8 | 95.6 | 64.2 | 76.6 | 75.8 | 85 | 91.5 | 84.7 | 94.4 | 98.1 | 102 | 90.4 | 93.9 | 67.7 | 71.6 | 75.3 | 72.1
COC1=CC2=C(C=C1OC)[C@H]3[C@@H](CO2)OC4=C(C=CC5=C4\C=C/C(C)(C)O5)C3=O | 82.8 | 89.3 | 106 | 96.8 | 95 | 98.5 | 94 | 82.8 | 70.4 | 69.3 | 10.3 | 88.8 | 95.3 | 93.3 | 99.2 | 89 | 93.6 | 90.8 | 82.8 | 78.7 | 76.5 | 9.87 | 86.3 | 88.1 | 91 | 95.2 | 79.9 | 98.1 | 94.3 | 88.5 | 81.9 | 81.4 | 21.4

From the supplement of paper PMC11451515
